According to patent publication US4636496A, “Compositions inhibiting murine MXT ductal carcinoma” (Wayne State University, priority 1986, dated 1987):
“Also recorded” adds a separate entry of the source.

Assays:
[1] = test system: Mammary Tumors Induced by Dimethylbenz(a)anthracene; test: Effects on mammary tumors induced by dimethylbenz(a)anthracene (DMBA), s.c. injection for 35 days; assay type: in vivo, Sprague-Dawley rats; conditions: for Mean tumor volume / Mean tumor no. (no. tumors/rat): 24 mg/kg s.c., 35 days, 7-10 rats/group, mean ± S.D.; for Mean tumor volume: control (None) 1.48 ± 2.09; for Mean tumor no. (no. tumors/rat): control (None) 3.30 ± 2.60; for significance of treatment results (in words): compared to control tumors, Student's t test
Description: Chemicals and Reagents. Estrone, 17-beta-estradiol 3-benzoate, estrone sulfate, aryl sulfatase (EC 3.1.6.1), beta-glucuronidase (EC3.2.1.31), 7,12-dimethylbenz(a)anthracene (DMBA), and 5-fluorouracil were obtained from Sigma Chemical Co. (St. Louis, Mo.). 4-Nitroestrone 3-methyl ether, 4-nitroestrone, and 2,4-dinitroestrone were synthesized by the procedures of Tomson et al., supra.
Animals. Virgin female Sprague-Dawley rats (The Charles River Co., Wilmington, Mass.) were housed 4 to 6/cage in a light (12 hr/day)--and temperature (24°)--controlled room and given a diet of Wayne Lab-Blox laboratory chow (Allied Mills, Inc., Chicago, Ill.) and tap water ad libitum. At 50 days of age, rats were intubated with DMBA (10 mg/100 g body weight) dissolved in sesame oil (20 mg/ml). Beginning at Day 45 after intubation, all animals were weighed and palpated once per week. Tumor volumes were calculated by measuring 2 diameters with a caliper and the third dimension with a ruler, then by substituting values:
where a, b, and c are the 3 different diameters of the tumor. The agreement of the in vivo tumor volume and measurements of excised tumors identified at necropsy was 95 to 99%. When about 75% of rats had palpable tumors (81 to 92 days after intubation), the animals were randomized, excluding rats with tumors larger than 2.00 ml and rats with more than 5 tumors/animal. The mean initial tumor volumes in control and treated groups ranged between 0.4 and 0.9 cu cm over the various experiments. When necessary, ovariectomy (ether anesthesia) was performed on the first or second day after the initiation of the study. The significance of difference between treatment groups was examined by Student's t test.
Estrogen derivatives (>99% pure by thin-layer chromatography) were injected s.c. daily (Monday to Friday). After distribution in SSV (steroid-suspending vehicles, 0.9% NaCl solution with 0.5% sodium carboxymethyl-cellulose-7, 0.4% polysorbate; and 0.9% benzylalcohol, obtained from the National Cancer Institute), the steroids (20 mg/ml) were administered at 0.12 to 54 mg/kg body weight. The suspension was sonicated before use to achieve uniform distribution. 17-Beta-estradiol 3-benzoate was dissolved directly in sesame oil to a concentration of 2.5 mg/ml; 5 fluorouracil was dissolved in water (25 mg/ml). The control group was given injections of SSV or sesame oil alone.
The toxicity of all antitumor agents was determined by comparing body weights of treated and control animals.
Postmortem Examination and Histopathology of Tumors. Rats were selected for colchicine injections (2 mg/kg body weight) 2 hr prior to necropsy to obtain an accurate measurement of mitotic indices of tumors. Animals were sacrificed with CO2 gas or bled to death via the abdominal aorta. Tumors and tissues were removed and preserved in 10% neutral buffered formalin for histopathological examination. Gross anomalies of abdominal, thoracic, and cranial cavities were recorded. Uteri were removed, trimmed, and weighed fresh. Ovaries, adrenals, and pituitaries were trimmed and weighed after fixation.
Histopathological observations on hematoxylin-and iosin-stained tumor and organ sections were performed, and comparisons between the control and treated groups were carried out using computer analysis. The microscopic parameters used to judge the degree of anaplasia in DMBA-induced mammary neoplasms, when treated animals were compared to controls, were: (a) the type of epithelium or mammary tissue involved; (b) the degree of encapsulation of the neoplasm; (c) the number of mitotic figures observed; (d) the extent of stroma invasions of the neoplastic epithelium; (e) the severity of lymphocytic infiltration of the neoplasms; and (f) the regressive, degenerative, or vacuolative changes in the neoplastic epithelium. […] Histological examination was performed on all mammary tumors. […]

[2] = test system: hormone dependent mammary tumors, induced by 7,12-dimethylbenz(a)anthracene; conditions: cited from earlier work
[3] = test system: MXT Mouse Mammary Ductal Carcinoma; test: Subcutaneous treatment of early stage, hormone-dependent MXT mouse mammary ductal carcinoma; assay type: in vivo
[4] = target: T1, Porcine Endometrial Estrogen Sulfotransferase (Sus scrofa, UniProt A0A286ZW98); test: Inhibition of porcine endometrial estrogen sulfotransferase; assay type: biochemical; conditions: compared within Table III
T1 construct: from tissue; host or cells: porcine endometrium
T1 sequence (A0A286ZW98 1-296): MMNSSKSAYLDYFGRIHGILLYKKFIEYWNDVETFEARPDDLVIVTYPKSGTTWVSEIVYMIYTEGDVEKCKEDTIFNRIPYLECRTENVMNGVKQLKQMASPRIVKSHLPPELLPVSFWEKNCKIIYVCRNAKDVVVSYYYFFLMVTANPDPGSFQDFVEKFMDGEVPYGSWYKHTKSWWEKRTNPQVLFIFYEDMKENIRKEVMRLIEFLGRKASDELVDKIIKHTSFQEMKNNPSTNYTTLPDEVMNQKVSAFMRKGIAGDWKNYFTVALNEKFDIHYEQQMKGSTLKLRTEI
Description: Compounds prepared in the foregoing examples were evaluated as inhibitors of porcine estrogen sulfotransferase as taught by Rozhin et al., J. Biol. Chem., 252:7214-7220 (1977) and Brooks et al., U.S. Pat. No. 4,496,555.

Question: For COc1c(Br)cc2c(c1Br)CC[C@@H]1[C@@H]2CC[C@]2(C)C(=O)CC[C@@H]12 [2,4-Dibromoestrone 3-methyl ether, 2,4-dibromoestrone 3-methyl ether], which Mean tumor volume [1] is on record?
Answer: 1.24 ± 1.07 cu cm

Question: And the “Mean tumor no. (no. tumors/rat)” value [1]?
Answer: 4.26 ± 2.51 no. tumors/rat

Question: What about the “significance of treatment results (in words)” value [1] of the same compound?
Answer: insignificant

Question: Which results are given for C[C@]12CC[C@@H]3c4ccc(O)c([N+](=O)[O-])c4CC[C@H]3[C@@H]1CCC2=O [4-Nitroestrone, 4-nitroestrone]?
Answer: Mean tumor volume [1]: 0.75 ± 0.10 cu cm; Mean tumor no. (no. tumors/rat) [1]: 1.95 ± 2.60 no. tumors/rat; significance of treatment results (in words) [1]: insignificant

Question: With COc1ccc2c(c1[N+](=O)[O-])CC[C@@H]1[C@@H]2CC[C@]2(C)C(=O)CC[C@@H]12 [4-Nitroestrone 3-methyl ether, 4-Nitroestrone 3-Methyl Ether] as the compound, how does the Mean tumor volume [1] read?
Answer: 0.05 ± 0.05 cu cm

Question: And the “Mean tumor no. (no. tumors/rat)” value [1]?
Answer: 1.35 ± 0.40 no. tumors/rat

Question: And the “growth of hormone dependent mammary tumors (in words)” value ([2]; DMBA-induced)?
Answer: found to inhibit the growth of hormone dependent mammary tumors

Question: What about the “route of administration to which utility is limited (in words)” value ([2]; particularly intraperitoneal or subcutaneous injection) of the same compound?
Answer: essentially limited to parental administration

Question: What does the source list for C[C@]12CC[C@@H]3c4cc([N+](=O)[O-])c(O)c([N+](=O)[O-])c4CC[C@H]3[C@@H]1CCC2=O [2,4-Dinitroestrone, 2,4-dinitroestrone]?
Answer: Mean tumor volume [1]: 1.14 ± 1.37 cu cm; Mean tumor no. (no. tumors/rat) [1]: 2.90 ± 1.67 no. tumors/rat; significance of treatment results (in words) [1]: insignificant

Question: Which results are given for C[C@]12CC[C@@H]3c4cccc([N+](=O)[O-])c4CC[C@H]3[C@@H]1CC[C@@H]2O [4-Nitroestra-1,3,5(10)-trien-17-beta-ol]?
Answer: growth of MXT mouse mammary ductal carcinoma (in words) ([3]; mouse, in vivo): inhibited the growth of MXT mouse mammary ductal carcinoma; also recorded: shown to inhibit the growth of murine MXT mammary ductal carcinoma; T/C Value Day 39 (%) ([3]; s.c. 200 mg/kg, QD 1-19): 8.2%; Time for Median Tumor to Reach 500 mg ([3]; s.c. 200 mg/kg, QD 1-19, control 18): 45; estrogen sulfotransferase inhibitory activity (in words) [4]: most active compound
